From patent US7109193B2, “Tricyclic diazepines tocolytic oxytocin receptor antagonists” (Wyeth, priority 2001, dated 2006)

Assays:
[1] = target: T1, human vasopressin V1a receptor subtype (Homo sapiens, UniProt P37288); assay: Vasopressin binding in Chinese Hamster Ovary cell membranes expressing human vasopressin V1a subtype receptors; details: CHO cell membranes, [3H]Manning ligand; for IC50: values in parentheses
T1 construct: host or cells: CHO cells (pZeoSV vector for the Thibonnier line)
Procedure, shortened: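 Membranes from CHO cells expressing human V1a receptor were incubated with [3H]Manning ligand (added as 20 μL of 8 nM) in pH 7.4 Tris buffer with MgCl2, BSA and protease inhibitors, 60 min at room temperature. Bound radioactivity was counted after filtration; values are percent inhibition at a stated concentration or IC50.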

T1 sequence (P37288 whole entry): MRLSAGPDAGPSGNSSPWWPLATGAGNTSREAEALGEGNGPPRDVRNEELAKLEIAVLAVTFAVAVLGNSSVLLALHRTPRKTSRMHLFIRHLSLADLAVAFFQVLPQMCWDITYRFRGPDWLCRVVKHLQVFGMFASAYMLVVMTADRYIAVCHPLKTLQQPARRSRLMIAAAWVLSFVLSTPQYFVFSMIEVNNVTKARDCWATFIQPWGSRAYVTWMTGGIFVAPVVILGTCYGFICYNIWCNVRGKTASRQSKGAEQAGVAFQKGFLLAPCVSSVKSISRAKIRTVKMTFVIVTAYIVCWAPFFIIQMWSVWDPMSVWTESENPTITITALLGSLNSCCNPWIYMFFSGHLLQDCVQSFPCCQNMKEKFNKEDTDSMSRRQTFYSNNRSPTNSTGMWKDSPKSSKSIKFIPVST

| IC50 [1] [µM] | melting point [°C] | inhibition at 0.1 µM ([1]; 100 nM, values without parentheses) [%] | SMILES |
| --- | --- | --- | --- |
| 0.717 | 125 to 128 |  | COc1cc(C(=O)N2Cc3ccc(C(=O)N4CCC[C@H]4CN4CCCC4)n3Cc3ccccc32)ccc1-c1ccccc1C(F)(F)F [Example 20, {[10-(2-Methoxy)-2′-trifluoromethyl-[1,1′-biphenyl]-4-yl]carbonyl}-[(2S)-[(2-pyrrolidin-1-yl)methyl]pyrrolidin-1-yl]-10,11-dihydro-5H-pyrrolo[2,1-c][1,4]benzodiazepin-3-yl-methanone] |
|  | 85 to 95 | 14 | Cc1cc(C(=O)N2Cc3ccc(C(=O)N4CCN(CCCN(C)C)CC4)n3Cc3ccccc32)ccc1-c1ccccc1C(F)(F)F [Example 4, [4-(3-Dimethylaminopropyl)-piperazin-1-yl]-[10-(2-methyl-2′-trifluoromethyl-[1,1′-biphenyl]-4-yl)carbonyl]-[10,11-dihydro-5H-pyrrolo[2,1-c][1,4]benzodiazepin-3-yl]-methanone] |
| 0.378 | 140 to 142 |  | COc1cc(C(=O)N2Cc3ccc(C(=O)N(C)CCCN(C)C)n3Cc3ccccc32)ccc1-c1ccccc1C(F)(F)F [Example 21, N-Methyl-[N-(3-dimethylamino)propyl]-10-{[2-methoxy-2′-trifluoromethyl-[1,1′-biphenyl]-4-yl]carbonyl}-10,11-dihydro-5H-pyrrolo[2,1-c][1,4]benzodiazepin-3-carboxamide] |
| 0.131 | 160 to 162 |  | Cc1ccc(-c2ccc(C(=O)N3Cc4cccn4Cc4ccccc43)cc2)c2ccccc12 [Example 25, [4-(4-Methyl-naphthalen-1-yl)phenyl][10,11-dihydro-5H-pyrrolo[2,1-c][1,4]benzodiazepin-10-yl]methanone] |
